From PubChem BioAssay (NCI) come the findings set out here.

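A five-concentration, 48-hour dose response in 96-well plates underlies each endpoint, interpolated linearly between surrounding concentrations. GI50 marks 50% less growth. Definition used: TGI = concentration required for complete inhibition of growth.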

Usually GI50 stands for the concentration giving 50% growth inhibition. A word on the TGI: it is the concentration giving total growth inhibition.

Among the test systems are COLO 205 colon; IGROV1 ovarian; SF-268 CNS; HOP-62 NSCLC; SK-MEL-28 melanoma; NCI-H460 lung; HL-60(TB) leukemia; K-562 leukemia; LOX IMVI melanoma; OVCAR-8 ovarian.
Holding throughout (assay): DTP human tumour cell line panel, 48 h

As to `O=C(Nc1ncc(Cc2cccc(C(F)(F)F)c2)s1)c1ccc2c(c1)OCCO2`, the concentration for 50% growth inhibition (GI50) with COLO 205 colon was 282 nM; in the assay with IGROV1 ovarian, 400 nM; in the assay on SF-268 CNS, 1130 nM; in the assay on HOP-62 NSCLC it was 615 nM; with SK-MEL-28 melanoma it was 1540 nM; in the assay on NCI-H460 lung, 349 nM. Besides, the GI50 in the assay on HL-60(TB) leukemia is 340 nM; in the assay on K-562 leukemia, 159 nM; in the assay on LOX IMVI melanoma, 565 nM; in the assay on OVCAR-8 ovarian, 485 nM. For the same molecule, the concentration for total growth inhibition (TGI) in the assay on COLO 205 colon was 1.54 µM; in the assay with IGROV1 ovarian it was more than 100 µM; in the assay with SF-268 CNS it was more than 100 µM; in the assay on HOP-62 NSCLC, more than 40.9 µM; with SK-MEL-28 melanoma it was more than 100 µM; in the assay on NCI-H460 lung, more than 38.2 µM. Besides, the TGI with HL-60(TB) leukemia, with K-562 leukemia, in the assay on LOX IMVI melanoma and in the assay on OVCAR-8 ovarian was more than 100 µM in each case.
In the case of `COc1ccc(/C=C\c2cc(OC)c(OC)c(OC)c2)cc1OCC(=O)O`, the TGI is more than 100 µM in the assay on COLO 205 colon; more than 100 µM in the assay on IGROV1 ovarian; more than 100 µM in the assay on SF-268 CNS; more than 100 µM in the assay on HOP-62 NSCLC; more than 100 µM in the assay on SK-MEL-28 melanoma; more than 55.3 µM with NCI-H460 lung. For the same molecule, the TGI in the assay on HL-60(TB) leukemia is 23.8 µM; with K-562 leukemia, more than 100 µM; in the assay on LOX IMVI melanoma, more than 100 µM; with OVCAR-8 ovarian, more than 58.2 µM.
For `O=c1[nH]c(-c2cccc(F)c2)cc2cc(F)ccc12`, the GI50 is 338 nM in the assay with COLO 205 colon; 822 nM in the assay with IGROV1 ovarian; more than 82900 nM with SF-268 CNS; 495 nM in the assay on HOP-62 NSCLC; 7500 nM with SK-MEL-28 melanoma; 389 nM in the assay with NCI-H460 lung. Besides, the GI50 is 199 nM in the assay on HL-60(TB) leukemia, 69.8 nM in the assay with K-562 leukemia, 613 nM in the assay on LOX IMVI melanoma and 951 nM in the assay with OVCAR-8 ovarian. Besides, the TGI in the assay with COLO 205 colon, in the assay with IGROV1 ovarian, in the assay with SF-268 CNS, in the assay with HOP-62 NSCLC, in the assay with SK-MEL-28 melanoma and in the assay with NCI-H460 lung was more than 100 µM each time. Also, the TGI with HL-60(TB) leukemia is 0.684 µM; in the assay with K-562 leukemia, more than 100 µM; in the assay on LOX IMVI melanoma it was more than 100 µM; in the assay on OVCAR-8 ovarian, more than 100 µM.
Take `O=Cc1cc2c(cc1-c1cc3c(cc1C=O)OCO3)OCO2`: the total growth inhibition concentration (TGI) in the assay on COLO 205 colon, with IGROV1 ovarian, with SF-268 CNS, with HOP-62 NSCLC, in the assay with SK-MEL-28 melanoma and with NCI-H460 lung was more than 100 µM each time. Further, the TGI is more than 100 µM in the assay on HL-60(TB) leukemia, more than 100 µM in the assay with K-562 leukemia, 56.3 µM in the assay on LOX IMVI melanoma and more than 100 µM in the assay with OVCAR-8 ovarian.
Regarding `CCOC(=O)C(Br)=C1OC(=O)c2ccccc2-c2ccccc21` (mixture of isomers), the TGI was determined as 32.9 µM with COLO 205 colon; 34.4 µM in the assay with IGROV1 ovarian; 88.3 µM in the assay with SF-268 CNS; 37.4 µM in the assay with HOP-62 NSCLC; 37.8 µM in the assay on SK-MEL-28 melanoma; 35 µM in the assay with HL-60(TB) leukemia. In addition, the total growth inhibition concentration (TGI) came out at 22.7 µM with K-562 leukemia, 35.9 µM with LOX IMVI melanoma and 75.8 µM in the assay with OVCAR-8 ovarian.
Turning to `COc1cccc2c1O/C(=C\c1ccc([N+](=O)[O-])s1)C2=O`, the GI50 with COLO 205 colon is 5150 nM; in the assay with IGROV1 ovarian, 1910 nM; in the assay with SF-268 CNS, 2020 nM; with NCI-H460 lung, 4340 nM; in the assay on HL-60(TB) leukemia, 2530 nM; with K-562 leukemia it was 349 nM. Further, the GI50 was 3150 nM in the assay with LOX IMVI melanoma and 2540 nM in the assay on OVCAR-8 ovarian. Besides, the TGI was more than 100 µM with COLO 205 colon; 5 µM in the assay with IGROV1 ovarian; 4.72 µM in the assay with SF-268 CNS; more than 100 µM in the assay on HOP-62 NSCLC; more than 100 µM with NCI-H460 lung; more than 100 µM with HL-60(TB) leukemia. Moreover, the TGI in the assay with K-562 leukemia was 3.05 µM; with LOX IMVI melanoma, more than 100 µM; in the assay with OVCAR-8 ovarian, more than 24.9 µM.
For `COc1c(C)c(OCC=C(C)C)cc(CO)c1CO`, the TGI with COLO 205 colon, in the assay with IGROV1 ovarian, in the assay on SF-268 CNS, with HOP-62 NSCLC, in the assay on NCI-H460 lung and in the assay with HL-60(TB) leukemia was more than 100 µM each time. Moreover, the TGI with K-562 leukemia, with LOX IMVI melanoma and in the assay with OVCAR-8 ovarian was more than 100 µM each time.
Take `Cc1cccc(NC2=C(Cl)C(=O)c3nc(C)ccc3C2=O)c1`: the GI50 is 1860 nM with COLO 205 colon; 1180 nM in the assay on IGROV1 ovarian; 2100 nM with SF-268 CNS; 529 nM with HOP-62 NSCLC; 1710 nM with SK-MEL-28 melanoma; 1640 nM in the assay with NCI-H460 lung. In addition, the figures for the GI50 with HL-60(TB) leukemia, in the assay with K-562 leukemia and in the assay with LOX IMVI melanoma were 2140 nM, 450 nM and 351 nM, respectively. Moreover, the total growth inhibition concentration (TGI) with COLO 205 colon came out at 4.1 µM; in the assay on IGROV1 ovarian, 2.6 µM; with SF-268 CNS, 6.4 µM; in the assay with HOP-62 NSCLC, 2.88 µM; with SK-MEL-28 melanoma, 3.14 µM; in the assay on NCI-H460 lung it was 3.82 µM. For the same molecule, the figures for the total growth inhibition concentration (TGI) in the assay on HL-60(TB) leukemia, in the assay with K-562 leukemia and in the assay on LOX IMVI melanoma were 5.8 µM, more than 100 µM and 1.46 µM, respectively.
Consider `CCCCCCCCSC1=C(Cl)C(=O)C(OC)=C(OC)C1=O`, for which the concentration for total growth inhibition (TGI) in the assay with COLO 205 colon worked out at 38 µM; in the assay with IGROV1 ovarian, 32.2 µM; in the assay on SF-268 CNS, 28.7 µM; with HOP-62 NSCLC, 51.7 µM; in the assay on NCI-H460 lung, 69.5 µM; with HL-60(TB) leukemia, 16.8 µM. The total growth inhibition concentration (TGI) was more than 100 µM with K-562 leukemia, 24 µM with LOX IMVI melanoma and 30.9 µM in the assay on OVCAR-8 ovarian.
Regarding `C=C(C)C(C1C=C(CCC(C=O)=C(C)C)C(=O)O1)C1(OC)C=C(C)C(=O)O1` (stereo not given), the GI50 with COLO 205 colon is 63600 nM; in the assay on IGROV1 ovarian, 92600 nM; in the assay with HOP-62 NSCLC, more than 100000 nM; in the assay on SK-MEL-28 melanoma, more than 100000 nM; with NCI-H460 lung it was 12500 nM; in the assay on HL-60(TB) leukemia, more than 100000 nM. For the same molecule, the GI50 in the assay on K-562 leukemia was 73200 nM; in the assay with LOX IMVI melanoma, 39600 nM; in the assay on OVCAR-8 ovarian, more than 100000 nM. For the same molecule, the TGI is more than 100 µM in the assay on COLO 205 colon; more than 100 µM with IGROV1 ovarian; more than 100 µM in the assay on HOP-62 NSCLC; more than 100 µM in the assay with SK-MEL-28 melanoma; 28.8 µM in the assay on NCI-H460 lung; more than 100 µM in the assay on HL-60(TB) leukemia. Moreover, the TGI in the assay on K-562 leukemia, in the assay with LOX IMVI melanoma and in the assay with OVCAR-8 ovarian was more than 100 µM throughout.
